Data taken from paper PMC8406319, “The dCache Chemoreceptor TlpA of Helicobacter pylori Binds Multiple Attractant and Antagonistic Ligands via Distinct Sites” (mBio, 2021).
Counter-ions that a name gives are not always drawn.

Key:
[1] = test system: H. pylori PMSS1 ΔtlpA; test: Temporal chemotaxis assay (direction changes), ΔtlpA mutant; format: cell-based, Helicobacter pylori; settings: ligands 0.1-10 mM, controls 50 μM dipyridyl, 10 mM HCl
Method: (§1) Cultures of H. pylori PMSS1 WT and ΔtlpA strains were grown overnight, back-diluted, and then incubated until an OD600 of 0.12 to 0.15 was reached. Cultures were treated with water (Mock) or various concentrations of compounds, as indicated. For panels C and E, the pH of cysteine, thiamine, malic acid, and α-ketoglutarate stocks was adjusted using NaOH to match the pH of the water used for the untreated control. The cells were immediately filmed, and direction changes were counted over a 3-s swimming period in at least 100 cells per treatment from 3 biological replicates. Data are normalized to the values for the untreated control for each strain, as described in Materials and Methods. Error bars represent the standard errors of the means. *, P < 0.05; **, P < 0.01; ***, P < 0.001 (comparisons to the untreated control per strain using two-way ANOVA with Dunnett’s multiple-comparison test).
To determine if chemoattractant responses toward arginine, fumarate, and cysteine were TlpA dependent, the same tracking experiments were repeated with a mutant lacking tlpA (ΔtlpA).
(§2) Swimming behavior assays were done with H. pylori PMSS1 strains grown in BB10 as described above. Cultures grown overnight were diluted to an optical density at 600 nm (OD600) of 0.1 in fresh BB10 and then incubated with shaking as described above until an OD600 of 0.12 to 0.15 was reached. […] The number of direction changes in a bacterial swimming trajectory was enumerated over a 3-s interval to determine whether each putative ligand is sensed as an attractant or repellent or elicits no response ([20], [25][–][30]). […] Each control is sensed by chemoreceptors other than TlpA ([24], [25], [29], [31]). The pH of BB10 upon treatment was independently assessed using a Denver Instruments pH meter. Prior to realizing that chemotactic responses may be due to medium acidification, we resuspended all ligands in pure water. Therefore, to be able to compare the results to those of previous experiments, we continued resuspending acidified ligands in pure water and then adjusting the pH of the resuspended ligand using NaOH. Cultures were filmed immediately after ligand addition at a ×400 magnification using a Hamamatsu C4742-95 digital camera with μManager software (version 1.4.22), mounted on a Nikon Eclipse E600 phase-contrast microscope. For the competition chemotaxis assay, cultures of H. pylori and ligands were prepared as described above. However, 1 min after the addition of a nonchemoactive ligand at a final concentration of 10 mM, a chemoactive ligand was added at a final concentration of 10 mM, and the cultures were then filmed as described above. Videos were relabeled to blind the observer to the strain identity. For each sample, >100 3-s-long bacterial tracks from three independent cultures were analyzed manually to identify stops followed by direction changes. Data for all biological replicates under each condition were combined, and the average number of direction changes in 3 s and the standard error of the mean were calculated. For each strain, data were normalized to the values for the untreated control under each experimental condition. Statistical analysis of the data for treated versus untreated samples was performed using two-way analysis of variance (ANOVA) and Dunnett’s multiple-comparison test.

[2] = test system: TlpALBD; test: Small-molecule ligand binding array; design: species or system Helicobacter pylori SS1; settings: ligand binding array screen; n = 3
Method: Small-molecule arrays were prepared and performed as previously described ([57]). Briefly, 1 μg of purified TlpALBD in phosphate-buffered saline (PBS) (pH 7.2) was incubated with a molar concentration ratio (4:2:1) of anti-His antibody (Cell Signaling), followed by incubation with a secondary antibody (Thermo Scientific) for signal amplification. The protein-antibody mix was added to an Arrayit Superepoxy III glass substrate array blocked with PBS (pH 7.2) with 1% bovine serum albumin. […] Unbound protein was washed away with PBS with 0.05% Tween. […] Three biological replicates were performed, with a total of 12 data points for each glycan tested. Binding was classified as positive for a ligand if the relative fluorescence unit value was >1-fold above the mean background (defined as the average background of negative-control spots plus 3 standard deviations [SD]) and was statistically significant (P < 0.005 by Student’s t test). Small-molecule array slide preparation and analysis were done according to MIRAGE guidelines ([58]) (outlined in Table S5).
Classification Guidelines
1. Sample: Glycan Binding Sample
Origin: Helico bact er pyl ori SS1; produce d as a reco mbinant His -tagged protein in E.
The preparation of TlpA is exp lained in the Materials and Methods se ct ion: TlpA co nst ruct desi gn and protein purifica tion.
Sample Sample is a His Tagged protein co ntaining only the periplasm ic rece ptor domain, amino […]
Please see Materials and Methods: Li ga nd bi ndi ng arra y.
Proteins were co mplexe d with mouse anti-his antibody, with se co ndary and tertiary Alexa Fluor555 antibodies (rabbit anti-mouse , goat anti-rabbit) at a molar ratio of 4:2:1.
The protein/antibody co mplex was incu bated on ice for 10 mins prior to placi ng on the Assa y array. Arrays were performed with 1 µg of co mplexe d protein incu bated on the array for protoco l 20 min. Arrays were then wash ed 3 times in Array PBS (PBS + 2 mM MgCl2 + 2 mM CaCl2) then dried by ce ntrifugation for 3 min at 300 x g. Sca nning was performed usi ng an Innopsys InnoSca n 1100AL and analyze d usi ng Mapix (Innopsy s). Yes/ no binding was determined by si x posi tive replica te sp ots in three replica te exp eriments. […]
2.2 Small molecule Library […]
descr iption for Compounds printed in the amino aci d/small molecu le array for this st udy are list ed in […]
5.2 Small molecule array with “Map”
The array co nsi sts of triplica te su b-arrays of amino aci ds and sm all moleucl es (24 rows x 10 co lumns) with 400μm sp ot sp aci ng (ce ntre to ce ntre) with a minimum sp ot si ze of 100μm . Each sa mple is printed si x times, with each of the 3 su b-arrays incl uding at least Array layo ut si x negative co ntrol sa mples (print so lution only) and a posi tive co ntrol sa mples […]
Posi tive co ntrols provi de proof of su cce ssf ul immobiliza tion of the amine reagents and provi des for orientation for analysi s.
Sample Arrays are quality co ntrolled by a range of measu res. 1. Each printed array is post print identifica tion sca nned to co nfirm deposi tion of the sa mples on the array su rface prior to neutraliza tion and quality of the remaining sl ide su rface . 2. Post neutralize d sl ides are sca nned again to monitor co ntrol for remaining autofluoresce nce .
1. 6. Detector and Data Processing
Sca nning reso lution: […]
Sca n powers: Low lase r power. […]
analysi s Innopsys MAPIX.

[3] = test system: H. pylori PMSS1 WT; test: Temporal chemotaxis assay (live-cell video microscopy, direction changes), WT; format: cell-based, Helicobacter pylori
Method: H. pylori chemotactic responses toward the seven putative TlpA-dependent ligands were examined by a live-cell video microscopy assay that measures the temporal chemotaxis response to test ligands. […] Acidic conditions are sensed by chemoreceptors other than TlpA ([24], [29], [31]) and potentially mask chemotactic responses to the ligands being tested.
as §1, with “For panels C and E, the pH of cysteine, thiamine, malic acid, and α-ketoglutarate stocks was adjusted using NaOH to match the pH of the water used for the untreated control.” left out
as §2, with “Prior to realizing that chemotactic responses may be due to medium acidification, we resuspended all ligands in pure water.” left out

[4] = test system: TlpALBD point mutants; test: SPR binding affinity of TlpALBD point mutants relative to WT; design: species or system Helicobacter pylori SS1; settings: vs WT
Description: The periplasmic portion of TlpA (TlpALBD), amino acids 28 to 299, from Helicobacter pylori SS1 was cloned into a pBH4 expression vector (pBH4_TlpALBD) to generate an N-terminal 6×His-tagged construct, with a tobacco etch virus (TEV) protease site, under the control of isopropyl-β-D-thiogalactopyranoside (IPTG) ([19]). […] TlpALBD and all point mutants were purified as described previously by Sweeney et al. ([19]).
Purified TlpALBD was immobilized on a CM5 series S sensor chip, and binding affinities were tested using a Biacore S200 instrument (GE Healthcare) as described previously ([39], [57], [59]). Briefly, proteins were captured using an amine-coupling kit (GE Healthcare), in which the carboxylmethyl dextran matrix of the sensor chip was activated by the injection of a mixture of 0.2 M 1-ethyl-3-[(3-dimethylamino)propyl]-carbodiimide (EDC) and 0.05 M N-hydroxysuccinimide (NHS), followed by the neutralization of the remaining unreacted NHS ester groups by the injection of 1 M ethanolamine-HCl (pH 8.0). Purified TlpALBD was diluted in 10 mM sodium acetate buffer (pH 4.5) at a concentration of 100 μg/ml for immobilization to the chip. A total of 8,400 response units (RU) of TlpALBD were captured on flow cell 2. […] The data sets were analyzed using Biacore S200 evaluation software 2.0.2; sensorgrams were double-reference subtracted.

Row | Compound | Chemotactic response of ΔtlpA mutant [1] | Array result [2] | Chemotactic response (direction changes vs mock) ([3]; WT, 0.1, 1, 10 mM tested, acidic ligand stocks pH neutralized with NaOH, 10 mM most significant) | Chemotactic response, ligand stock pH not adjusted ([3]; acidic in solution, unadjusted pH) | Change in binding affinity, any point mutant [4]
1 | Cl [HCl, reference compound] | repellent responses | – | – | – | –
2 | c1ccc(-c2ccccn2)nc1 [dipyridyl, 2,2′-dipyridyl, reference compound] | significant attractant | – | – | – | –
3 | O=C(O)CCC(=O)C(=O)O [α-Ketoglutarate, α-ketoglutaric acid] | – | + | no significant direction changes | significant TlpA-independent chemorepellent responses | no appreciable change
